Experimental data taken from patent publication US8143408B2, “N-(8-heteroaryltetrahydronaphtalene-2yl) or N-(5-heteroarylchromane-3-yl) carboxamide derivatives for the treatment of pain” (AstraZeneca AB, priority 2007, dated 2012).

Target: T1, Nav1.7 voltage-gated sodium channel (Homo sapiens, UniProt Q15858)
T1 construct: Gene(s) encoding the full-length protein of the voltage-gated sodium channel of interest are cloned and expressed; expressed in transfected cells
Experiment: Whole-cell voltage clamp electrophysiology assay
Type: cell-based
Settings: cells stably expressing the voltage-gated sodium channel of interest
Summary of the method: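 Cells expressing full-length channel, exposed to drug by integrated pipetting on automated patch-clamp platforms or by microperfusion in conventional whole-cell patch clamp. Channels activated by a voltage protocol depolarising from a defined holding potential; buffers per platform manufacturer.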

T1 sequence (Q15858 whole entry): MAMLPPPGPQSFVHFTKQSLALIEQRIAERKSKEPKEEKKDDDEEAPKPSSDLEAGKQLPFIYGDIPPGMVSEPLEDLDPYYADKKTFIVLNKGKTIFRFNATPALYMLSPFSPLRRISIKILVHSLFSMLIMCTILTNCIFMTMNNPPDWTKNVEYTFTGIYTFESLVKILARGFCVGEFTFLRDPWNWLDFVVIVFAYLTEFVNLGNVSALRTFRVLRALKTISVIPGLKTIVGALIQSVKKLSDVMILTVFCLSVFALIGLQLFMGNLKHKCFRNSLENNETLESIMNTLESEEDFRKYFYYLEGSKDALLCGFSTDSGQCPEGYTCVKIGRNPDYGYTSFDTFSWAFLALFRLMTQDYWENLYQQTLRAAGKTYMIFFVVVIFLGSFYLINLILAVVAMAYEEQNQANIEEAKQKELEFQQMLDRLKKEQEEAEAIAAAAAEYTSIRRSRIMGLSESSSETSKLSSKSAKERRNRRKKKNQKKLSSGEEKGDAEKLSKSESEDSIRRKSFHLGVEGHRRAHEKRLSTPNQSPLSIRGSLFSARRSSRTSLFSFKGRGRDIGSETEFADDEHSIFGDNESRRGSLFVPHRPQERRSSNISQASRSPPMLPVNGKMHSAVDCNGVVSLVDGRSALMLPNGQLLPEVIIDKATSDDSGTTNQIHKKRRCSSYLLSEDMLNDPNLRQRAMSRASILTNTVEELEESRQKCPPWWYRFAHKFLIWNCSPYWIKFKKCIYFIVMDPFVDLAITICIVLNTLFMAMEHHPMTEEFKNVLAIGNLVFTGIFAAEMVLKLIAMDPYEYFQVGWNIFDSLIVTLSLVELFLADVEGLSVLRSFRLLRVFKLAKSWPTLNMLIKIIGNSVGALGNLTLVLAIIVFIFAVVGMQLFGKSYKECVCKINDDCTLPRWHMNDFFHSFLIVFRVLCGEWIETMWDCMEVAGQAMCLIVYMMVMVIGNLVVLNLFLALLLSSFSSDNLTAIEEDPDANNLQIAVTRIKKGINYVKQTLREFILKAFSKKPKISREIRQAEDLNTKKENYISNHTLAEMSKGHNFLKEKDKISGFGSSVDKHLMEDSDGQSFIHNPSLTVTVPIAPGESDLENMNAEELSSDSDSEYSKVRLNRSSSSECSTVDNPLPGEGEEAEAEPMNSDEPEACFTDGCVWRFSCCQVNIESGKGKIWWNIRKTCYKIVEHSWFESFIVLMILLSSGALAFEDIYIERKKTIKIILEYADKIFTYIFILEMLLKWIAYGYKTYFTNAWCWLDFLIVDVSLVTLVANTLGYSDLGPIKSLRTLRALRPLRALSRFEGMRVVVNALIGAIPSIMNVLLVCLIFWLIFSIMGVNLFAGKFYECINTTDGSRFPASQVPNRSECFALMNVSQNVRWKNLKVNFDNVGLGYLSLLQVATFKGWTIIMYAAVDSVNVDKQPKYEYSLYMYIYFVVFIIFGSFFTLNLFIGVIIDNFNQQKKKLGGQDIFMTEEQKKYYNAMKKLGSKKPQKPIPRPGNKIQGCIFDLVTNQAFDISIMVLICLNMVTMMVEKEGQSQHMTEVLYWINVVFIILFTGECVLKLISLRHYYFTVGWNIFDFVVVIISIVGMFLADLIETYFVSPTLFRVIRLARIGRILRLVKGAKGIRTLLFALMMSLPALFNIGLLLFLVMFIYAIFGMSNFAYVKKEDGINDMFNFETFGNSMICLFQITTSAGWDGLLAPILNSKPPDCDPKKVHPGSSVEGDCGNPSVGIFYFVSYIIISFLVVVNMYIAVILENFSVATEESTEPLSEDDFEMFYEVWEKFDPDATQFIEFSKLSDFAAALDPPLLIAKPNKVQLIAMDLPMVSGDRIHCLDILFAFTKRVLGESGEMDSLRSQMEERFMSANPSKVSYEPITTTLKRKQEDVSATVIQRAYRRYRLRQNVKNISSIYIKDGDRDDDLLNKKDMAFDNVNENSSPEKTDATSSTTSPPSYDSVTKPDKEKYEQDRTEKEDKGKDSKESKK

Row | IC50 | SMILES
1 | 398 nM | COc1ncc(-c2cccc3c2C[C@H](NC(=O)c2ccc(OCCC(F)(F)F)nc2)CO3)cc1F [Example 97, N-[(3S)-5-(5-fluoro-6-methoxypyridin-3-yl)-3,4-dihydro-2H-chromen-3-yl]-6-(3,3,3-trifluoropropoxy)nicotinamide]
2 | 6310 nM | COc1cc(-c2cccc3c2C[C@H](NC(=O)c2ccc(OCC(F)(F)F)nc2)CO3)c(OC)nn1 [Example 98, N-[(3S)-5-(3,6-dimethoxypyridazin-4-yl)-3,4-dihydro-2H-chromen-3-yl]-6-(2,2,2-trifluoroethoxy)nicotinamide]
3 | 398 nM | Cc1cncc(-c2cccc3c2C[C@H](NC(=O)c2ccc(OCC(F)(F)F)nc2)CO3)n1 [Example 99, N-[(3S)-5-(6-methylpyrazin-2-yl)-3,4-dihydro-2H-chromen-3-yl]-6-(2,2,2-trifluoroethoxy)nicotinamide]
4 | 398 nM | COc1ncc(-c2cccc3c2C[C@H](NC(=O)c2ccc(OCCCF)nc2)CO3)cn1 [Example 100, 6-(3-fluoropropoxy)-N-[(3S)-5-(2-methoxypyrimidin-5-yl)-3,4-dihydro-2H-chromen-3-yl]nicotinamide]
5 | 158 nM | Cc1ncc(-c2cccc3c2C[C@H](NC(=O)c2ccc(OCCCF)nc2)CO3)cn1 [Example 101, 6-(3-fluoropropoxy)-N-[(3S)-5-(2-methylpyrimidin-5-yl)-3,4-dihydro-2H-chromen-3-yl]nicotinamide]
6 | 100 nM | Cc1ncc(-c2cccc3c2C[C@H](NC(=O)c2ccc(OCC(F)(F)F)nc2)CO3)cn1 [Example 102, N-[(3S)-5-(2-methylpyrimidin-5-yl)-3,4-dihydro-2H-chromen-3-yl]-6-(2,2,2-trifluoroethoxy)nicotinamide]
7 | 2510 nM | Cc1ncc(-c2cccc3c2C[C@H](NC(=O)c2ccnc(OC(C)C)c2)CO3)cn1 [Example 104, 2-isopropoxy-N-[(3S)-5-(2-methylpyrimidin-5-yl)-3,4-dihydro-2H-chromen-3-yl]isonicotinamide]
8 | 63.1 nM | Cc1ncc(-c2cccc3c2C[C@H](NC(=O)c2ccc(OC4CCC4)nc2)CO3)cn1 [Example 105, 6-(cyclobutyloxy)-N-[(3S)-5-(2-methylpyrimidin-5-yl)-3,4-dihydro-2H-chromen-3-yl]nicotinamide]
9 | 251 nM | COc1ncc(-c2cccc3c2C[C@H](NC(=O)c2ccc(OC4CCC4)nc2)CO3)cn1 [Example 106, 6-(cyclobutyloxy)-N-[(3S)-5-(2-methoxypyrimidin-5-yl)-3,4-dihydro-2H-chromen-3-yl]nicotinamide]
10 | 3980 nM | COc1ncc(-c2cccc3c2C[C@H](NC(=O)c2ccnc(OC(C)C)c2)CO3)cn1 [Example 107, 2-isopropoxy-N-[(3S)-5-(2-methoxypyrimidin-5-yl)-3,4-dihydro-2H-chromen-3-yl]isonicotinamide]
11 | 3980 nM | Cc1cnc(-c2cccc3c2C[C@H](NC(=O)c2ccc(OCCCF)nc2)CO3)c(C)n1 [Example 108, N-[(3S)-5-(3,5-dimethylpyrazin-2-yl)-3,4-dihydro-2H-chromen-3-yl]-6-(3-fluoropropoxy)nicotinamide]
12 | 126 nM | O=C(N[C@@H]1COc2cccc(-c3cnc(C4CC4)nc3)c2C1)c1ccc(OCC(F)(F)F)nc1 [Example 109, N-[(3S)-5-(2-cyclopropylpyrimidin-5-yl)-3,4-dihydro-2H-chromen-3-yl]-6-(2,2,2-trifluoroethoxy)nicotinamide]
13 | 2000 nM | CCCN(CCC)C(=O)c1ccc(C(=O)N[C@@H]2COc3cccc(-c4cnc(OC)nc4)c3C2)cn1 [Example 110, N^5-[(3S)-5-(2-methoxypyrimidin-5-yl)-3,4-dihydro-2H-chromen-3-yl]-N^2,N^2-dipropylpyridine-2,5-dicarboxamide]
14 | 251 nM | COc1ncc(-c2cccc3c2C[C@H](NC(=O)c2ccc(C(=O)NCCC(C)C)nc2)CO3)cn1 [Example 111, N^5-[(3S)-5-(2-methoxypyrimidin-5-yl)-3,4-dihydro-2H-chromen-3-yl]-N^2-(3-methylbutyl)pyridine-2,5-dicarboxamide]
